Where two headings read alike, the source gives them in different places.
How the values were obtained:
[1] = system: TF1 JAK2 V617F STAT5 reporter; experiment: Cellular TF1 STAT5 assay (luciferase reporter), JAK2 V617F; format: cell-based; conditions: read-out: Cell PD TF1 V617F STAT5 (IC50)
Protocol: (§1) Selected compounds of the present disclosure were tested in a Cellular TF1 STAT3 or STAT5 assay, to measure the degree of JAK2-mediated STAT3 or STAT5 phosphorylation, respectively. TF1 cells (immortalized erythroleukemia line) expressing either wildtype or V617F mutant JAK2 with a luciferase reporter were used.
(§2) Cell culture: Cells were put into antibiotic selection (1 ug/ml puro+500 ug/ml Geneticin) when first thawed then maintained in growth media without antibiotics. Cells were maintained in exponential growth phase, between 0.02-1 E6 cells/ml.
(§3) Compound preparation: Compounds were screened as 10-point dose response curves 1:3 dilutions. DMSO is used as the vehicle control. All wells were normalized to the same final DMSO concentration. Compounds were pre-spotted onto 384 well plates using an Echo acoustic dispenser, 50 nL of 1000× (10 mM top concentration) DMSO stock/well. Each compound is run in triplicate plates.
(§4) Cell plating: Cells were counted using Vi-Cell XR, then cells were spun down and resuspended in growth media to 200,000 cells/ml. Cells were added to plates containing compound. 10,000 cells/well in 50 ul volume using a Biomek liquid handler. Plates were briefly mixed on a shaker for 1 minute at 2500 rpm then placed in a 37° C., 5% CO2 incubator overnight for 18-20 hrs.
(§5) Measuring luciferase activity: ONE-glo reagent was brought to room temperature, and 25 μL of ONE-glo assay reagent was added to each well using Biomek liquid handler. The plates were incubated for 10 minutes at room temperature, then luminescence was measured on an Envision plate reader.

[2] = biological target: T1, JAK2 JH2 WT (V536-D812) [W659A, W777A, F794H solubilizing mutations] (Homo sapiens, UniProt O60674, F794H/W659A/W777A); experiment: Surface Plasmon Resonance (SPR) binding assay, JAK2 JH2 domain
T1 construct: **JAK2 JH2 WT (V536-D812) [W659A, W777A, F794H solubilizing mutations]; C-thrombin-avi-His6; thrombin cleavage site (C); His6 (C); purchased Biortus
T1 sequence (O60674 536-812 W659A/W777A/F794H): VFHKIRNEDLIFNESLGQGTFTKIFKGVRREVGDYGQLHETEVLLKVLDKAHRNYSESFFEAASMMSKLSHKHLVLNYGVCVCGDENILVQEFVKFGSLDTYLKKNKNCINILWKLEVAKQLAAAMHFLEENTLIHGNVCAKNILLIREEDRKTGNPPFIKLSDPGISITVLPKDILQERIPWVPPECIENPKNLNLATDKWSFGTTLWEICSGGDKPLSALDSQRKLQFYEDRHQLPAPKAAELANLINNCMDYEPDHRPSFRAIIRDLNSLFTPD
Protocol: Selected compounds of the present disclosure were tested in a Surface Plasmon Resonance (SPR) Assay to measure their binding kinetics and affinity for proteins of interest.
Prepare buffer: 50 mM HEPES pH 7.5, 150 mM NaCl, 0.05% (v/v) Tween, and 10% (v/v) glycerol were combined and pH was adjusted to 7.5, then filtered. 5 mM DTT, was added, and buffer without DMSO was reserved for compound resuspension. 2% (v/v) DMSO was added for assay buffer, and separately 1% DMSO was used to make buffer for resuspending compounds.
Prepare compounds: Using a Bravo liquid handler, 99 μL of 1% (v/v) DMSO assay buffer was added to 1 μL compounds in DMSO.
Run 8K Method: Biotin CAPture (CAP) chip surface was regenerated prior to run by: Inserting CAP chip into Biacore 8K, prime machine with assay buffer with 2% (v/v) DMSO; Setting instrument temperature to 20° C.; Conditioning surface with NaOH/GdnHCl reagents from CAP chip kit (60 seconds, 10 μL/min); and Capturing oligo-Streptavidin (SA) reagent from CAP kit (600 seconds, 1 μL/min), expected capture ˜2500 RU. JAK2 JH1 or JH2 protein was immobilized by preparing a sample of 0.5 uM JH1 or 0.4 uM JH2 protein diluted in assay buffer without DMSO and supplemented with 10 uM of a selected compound of the invention as a stabilizer (370 seconds, 5 uL/min), expected capture ˜1000 RU. Remaining biotin sites on SA were blocked with 1 uM biotin (30 seconds, 20 uL/min), then equilibrated for 1800 seconds at 100 uL/min. Compounds being assayed were run in single cycle kinetics: 4 doses with a top concentration of 5 uM (JH1) or 500 nM (JH2), dilution factor of 3, at 20° C., for a contact time of 60 seconds, and a dissociation time of 300 seconds (JH1) or 1200 seconds (JH2), at a flow rate of 30 uL/min. The surface was completely regenerated after each compound is run, and JH1 or JH2 protein was immobilized fresh prior to each new compound. Data were fitted kinetically with 1:1 binding model using Biacore Insight Evaluation Software.

[3] = system: TF1 JAK2 V617F STAT3 reporter; experiment: Cellular TF1 STAT3 assay (luciferase reporter), JAK2 V617F; format: cell-based; conditions: read-out: Cell PD-TF1 JAK2 V617F STAT3 (IC50)
Protocol: as §1, §2, §3, §4, §5

[4] = Homo sapiens, TF-1, TF1 cells, JAK2 V617F

Row | SMILES | IC50 ([1]; TF1 JAK2 V617F) | Kd ([2]; SPR, JAK2 JH2 domain) | IC50 ([3]; TF1 JAK2 V617F) | IC50 [1, 4] | Kd [2] | IC50 [3, 4]
1 | CNC(=O)c1nnc(NC(=O)C2CC2)cc1Nc1ccc(C)c(-c2cnc(C(=O)N(C)Cc3cn(C)nc3C)c(F)c2)c1OC [Compound 230] |  |  |  | 50 to 500 nM | 0.01 to 10 nM | 50 to 500 nM
2 | CNC(=O)c1nnc(NC(=O)C2CC2)cc1Nc1ccc(C)c(-c2ccc(C(=O)N(C)Cc3cc(C#N)ccn3)cc2)c1OC [Compound 103] | 500 to 5000 nM | 0.01 to 10 nM | 50 to 500 nM |  |  | 
3 | CNC(=O)c1nnc(NC(=O)C2CC2)cc1Nc1cccc(-c2cnc(C(=O)N(C)Cc3cc(C#N)ccn3)cc2C2CC2)c1OC [Compound 153] | 50 to 500 nM | 0.01 to 10 nM | 50 to 500 nM |  |  | 
4 | CNC(=O)c1nnc(NC(=O)C2CC2)cc1Nc1ccc(C)c(-c2ccc(C(=O)N(C)Cc3ncc(COC)s3)nc2)c1OC [Compound 317] |  |  |  | 50 to 500 nM | 0.01 to 10 nM | 500 to 5000 nM
5 | CNC(=O)c1nnc(NC(=O)C2CC2)cc1Nc1cc(F)cc(-c2ccc(C(=O)N(C)Cc3ccn(C)n3)nc2)c1OC [Compound 97] | 50 to 500 nM | 0.01 to 10 nM | 50 to 500 nM |  |  | 
6 | COc1c(Nc2cc(NC(=O)C3CC3)nnc2-c2ncc[nH]2)cccc1-c1ccc(C(=O)N(C)Cc2cc(C#N)ccn2)nc1 [Compound 366] |  |  |  | 50 to 500 nM | 0.01 to 10 nM | 50 to 500 nM
7 | CNC(=O)c1nnc(NC(=O)C2CC2)cc1Nc1cccc(-c2ccc(C(=O)N(C)CC3=NO[C@H]4CCCC[C@@H]34)nc2)c1OC (single isomer, unassigned) [Compound 194] | 500 to 5000 nM | 0.01 to 10 nM | 500 to 5000 nM |  |  | 
8 | CNC(=O)c1nnc(NC(=O)C2CC2)cc1Nc1cccc(-c2ccc(C(=O)N(C)Cc3cc(C#N)ccn3)nc2OC)c1OC [Compound 20] | 500 to 5000 nM | 0.01 to 10 nM | 500 to 5000 nM |  |  | 
9 | CNC(=O)c1nnc(NC(=O)C2CC2)cc1Nc1cccc(-c2ccc(C(=O)N(C)Cc3cc(C#N)ccn3)c(F)c2)c1OC [Compound 131] | 500 to 5000 nM | 0.01 to 10 nM | 500 to 5000 nM |  |  | 
10 | CNC(=O)c1nnc(NC(=O)C2CC2)cc1Nc1cccc(-c2ccc(C(=O)N(C)Cc3cn(C)nc3C(F)(F)F)nc2)c1OC [Compound 51] | 50 to 500 nM | 0.01 to 10 nM | 50 to 500 nM |  |  | 
11 | CNC(=O)c1nnc(NC(=O)C2CC2)cc1Nc1cccc(-c2ccc(C(=O)N(C)Cc3ccc(OC(F)F)cc3)nc2)c1OC [Compound 85] | 500 to 5000 nM | 0.01 to 10 nM | 500 to 5000 nM |  |  | 
12 | CNC(=O)c1nnc(NC(=O)C2CC2)cc1Nc1cccc(-c2ccc(C(=O)N(C)Cc3cccc(OC(F)F)c3)nc2)c1OC [Compound 80] | 500 to 5000 nM | 0.01 to 10 nM | 50 to 500 nM |  |  | 
13 | CNC(=O)c1nnc(NC(=O)C2CC2)cc1Nc1cccc(-c2ccc(C(=O)N(C)Cc3cnc(C)s3)nc2)c1OC [Compound 211] |  |  |  | 500 to 5000 nM | 0.01 to 10 nM | 5000 to 100000 nM
14 | CNC(=O)c1nnc(NC(=O)C2CC2)cc1Nc1cccc(-c2ccc(C(=O)N(C)[C@@H](C)c3ccn(C)n3)nc2)c1OC (single isomer, unassigned) [Compound 160] | 500 to 5000 nM | 0.01 to 10 nM | 500 to 5000 nM |  |  | 
15 | CNC(=O)c1nnc(NC(=O)C2CC2)cc1Nc1cccc(-c2ccc(C(=O)N(C)Cc3cn(C)nc3C(C)C)nc2)c1OC [Compound 198] |  |  |  | 50 to 500 nM | 0.01 to 10 nM | 50 to 500 nM

The remaining lines, values ahead:

Row | IC50 ([1]; TF1 JAK2 V617F) | Kd ([2]; SPR, JAK2 JH2 domain) | IC50 ([3]; TF1 JAK2 V617F) | IC50 [1, 4] | Kd [2] | IC50 [3, 4] | SMILES
16 | 50 to 500 nM | 0.01 to 10 nM | 50 to 500 nM |  |  |  | CNC(=O)c1nnc(NC(=O)C2CC2)cc1Nc1cccc(-c2cnn(C3CN(Cc4cccc(C)n4)C3)c2)c1OC [Compound 106]
17 |  |  |  | 5000 to 100000 nM | 10 to 50 nM | 5000 to 100000 nM | CNC(=O)c1nnc(NC(=O)C2CC2)cc1Nc1cccc(-c2ccc(C3CN(Cc4ccn(C)n4)C3)nc2)c1OC [Compound 263]
18 |  |  |  | 50 to 500 nM | 0.01 to 10 nM | 50 to 500 nM | CNC(=O)c1nnc(NC(=O)C2CC2)cc1Nc1cccc(-c2cn([C@H]3CN(Cc4cccc(C#N)n4)[C@@H]3C)nn2)c1OC (stereo in doubt) [Compound 234]
19 |  |  |  | 500 to 5000 nM | 0.01 to 10 nM | 500 to 5000 nM | CNC(=O)c1nnc(NC(=O)C2CC2)cc1Nc1cccc(-c2ccc(C(=O)N3CCc4cccnc4CC3)nc2)c1OC [Compound 196]
20 | 5000 to 100000 nM | 0.01 to 10 nM | 500 to 5000 nM |  |  |  | CNC(=O)c1nnc(NC(=O)C2CC2)cc1Nc1cccc(-c2cnc(C(=O)NCc3cccn(C)c3=O)cn2)c1OC [Compound 7]
21 |  |  |  | 500 to 5000 nM | 0.01 to 10 nM | 500 to 5000 nM | CNC(=O)c1nnc(NC(=O)C2CC2)cc1Nc1cccc(-c2cnn(C3CC(C(O)c4ccccn4)C3)c2)c1OC (stereo not drawn) [Compound 370]
22 |  |  |  | 500 to 5000 nM | 0.01 to 10 nM | 500 to 5000 nM | CNC(=O)c1nnc(NC(=O)C2CC2)cc1Nc1cccc(-c2cnn(C3CN(Cc4cn(C)nc4C)C3)c2)c1OC [Compound 213]
23 |  |  |  | 500 to 5000 nM | 50 to 500 nM | 5000 to 100000 nM | CNC(=O)c1nnc(NC(=O)C2CC2)cc1Nc1cccc(-c2ccc(C3CN(Cc4ccc(Cl)cn4)C3)nc2)c1OC [Compound 388]
24 | 50 to 500 nM | 0.01 to 10 nM | 50 to 500 nM |  |  |  | CNC(=O)c1nnc(NC(=O)C2CC2)cc1Nc1cccc(-c2cnn(C3CN(Cc4cccnn4)C3)c2)c1OC [Compound 109]
25 | 5000 to 100000 nM | 0.01 to 10 nM | 5000 to 100000 nM |  |  |  | CNC(=O)c1nnc(NC(=O)C2CC2)cc1Nc1cccc(-c2cc(C3CN(Cc4cc(C#N)ccn4)C3)nn2C)c1OC [Compound 177]
26 | 500 to 5000 nM | 0.01 to 10 nM | 500 to 5000 nM |  |  |  | CNC(=O)c1nnc(NC(=O)C2CC2)cc1Nc1cccc(-c2cnn(C3CN(Cc4ncccn4)C3)c2)c1OC [Compound 70]
27 | 5000 to 100000 nM | 0.01 to 10 nM | 5000 to 100000 nM |  |  |  | CNC(=O)c1nnc(NC(=O)C2CC2)cc1Nc1cccc(-c2cc(C3CN(Cc4cnn(C)c4)C3)nn2C)c1OC [Compound 175]
28 |  |  |  | 50 to 500 nM | 0.01 to 10 nM | 50 to 500 nM | CNC(=O)c1nnc(NC(=O)C2CC2)cc1Nc1cccc(-c2cn(C3CN(Cc4cccc(C(F)F)n4)C3)cn2)c1OC [Compound 341]
29 |  |  |  | 50 to 500 nM | 0.01 to 10 nM | 50 to 500 nM | CNC(=O)c1nnc(NC(=O)C2CC2)cc1Nc1cccc(-c2cn([C@@H]3CN(Cc4cccc(C#N)n4)[C@H]3C)nn2)c1OC (racemic) [Compound 214]
30 |  |  |  | 500 to 5000 nM | 0.01 to 10 nM | 500 to 5000 nM | CNC(=O)c1nnc(NC(=O)C2CC2)cc1Nc1cccc(-c2cnn(C3CN(Cc4cccc(C#CCN)n4)C3)c2)c1OC [Compound 265]
31 |  |  |  | 5000 to 100000 nM | 10 to 50 nM | 5000 to 100000 nM | CNC(=O)c1nnc(NC(=O)C2CC2)cc1Nc1ccc(C)c(-c2ccc(C3CN(Cc4ccccn4)C3)nc2)c1OC [Compound 322]
32 | 50 to 500 nM | 0.01 to 10 nM | 50 to 500 nM |  |  |  | CNC(=O)c1nnc(NC(=O)C2CC2)cc1Nc1cccc(-c2ccc(C(=O)N(C)Cc3cccc(C)n3)nc2)c1OC [Compound 167]
33 |  |  |  | 500 to 5000 nM | 50 to 500 nM | 5000 to 100000 nM | CNC(=O)c1nnc(NC(=O)C2CC2)cc1Nc1cccc(-c2ccc(C3CN(Cc4cc(C#N)ccn4)C3)c(OC)c2)c1OC [Compound 360]

From patent US20240368122A1, “JAK2 INHIBITORS AND METHODS OF USE THEREOF” (RELAY THERAPEUTICS, INC., priority 2021, published 2024)
